According to patent US20230119502A1, “Collagen Nucleation Inhibitors” (Northeastern University, priority 2020, published 2023):
In brackets after ≈: the same amount, converted by molar mass. Like-named read-outs stand apart in the source and are kept apart here.

What was measured:
[1] = Baseline absorbance of the monosaccharide solutions without collagen; assay type: physicochemical; conditions: 313 nm, 37° C., no collagen, n=3
Text: No collagen was present in these samples.

[2] = biological target: T1, acetic acid-extracted bovine type I collagen (Bos taurus, UniProt P02453+P02465); assay type: biochemical; conditions: for critical concentration at which collagen assembly was completely inhibited / effect on collagen assembly kinetics and ODmax / lag time (lag phase at 30% assembly) / effect on collagen assembly: 1 mg/mL collagen; for critical concentration at which collagen assembly was completely inhibited: 37° C., pH 7.3; for effect on collagen assembly kinetics and ODmax: 0.125 M; for lag time (lag phase at 30% assembly): 0.25 M total saccharide; for effect on collagen assembly: 0.5 M (each component 0.5 M for Gal with acetic acid; 0.5 M total for ratios); for Rates of Collagen Assembly (KA), 30% to 70%: n=9, ± SD
T1 construct: acetic acid-extracted bovine type I collagen; purchased Advanced Biomatrix 5026-1 KIT
T1 sequence (P02453 162-1217 limits assumed): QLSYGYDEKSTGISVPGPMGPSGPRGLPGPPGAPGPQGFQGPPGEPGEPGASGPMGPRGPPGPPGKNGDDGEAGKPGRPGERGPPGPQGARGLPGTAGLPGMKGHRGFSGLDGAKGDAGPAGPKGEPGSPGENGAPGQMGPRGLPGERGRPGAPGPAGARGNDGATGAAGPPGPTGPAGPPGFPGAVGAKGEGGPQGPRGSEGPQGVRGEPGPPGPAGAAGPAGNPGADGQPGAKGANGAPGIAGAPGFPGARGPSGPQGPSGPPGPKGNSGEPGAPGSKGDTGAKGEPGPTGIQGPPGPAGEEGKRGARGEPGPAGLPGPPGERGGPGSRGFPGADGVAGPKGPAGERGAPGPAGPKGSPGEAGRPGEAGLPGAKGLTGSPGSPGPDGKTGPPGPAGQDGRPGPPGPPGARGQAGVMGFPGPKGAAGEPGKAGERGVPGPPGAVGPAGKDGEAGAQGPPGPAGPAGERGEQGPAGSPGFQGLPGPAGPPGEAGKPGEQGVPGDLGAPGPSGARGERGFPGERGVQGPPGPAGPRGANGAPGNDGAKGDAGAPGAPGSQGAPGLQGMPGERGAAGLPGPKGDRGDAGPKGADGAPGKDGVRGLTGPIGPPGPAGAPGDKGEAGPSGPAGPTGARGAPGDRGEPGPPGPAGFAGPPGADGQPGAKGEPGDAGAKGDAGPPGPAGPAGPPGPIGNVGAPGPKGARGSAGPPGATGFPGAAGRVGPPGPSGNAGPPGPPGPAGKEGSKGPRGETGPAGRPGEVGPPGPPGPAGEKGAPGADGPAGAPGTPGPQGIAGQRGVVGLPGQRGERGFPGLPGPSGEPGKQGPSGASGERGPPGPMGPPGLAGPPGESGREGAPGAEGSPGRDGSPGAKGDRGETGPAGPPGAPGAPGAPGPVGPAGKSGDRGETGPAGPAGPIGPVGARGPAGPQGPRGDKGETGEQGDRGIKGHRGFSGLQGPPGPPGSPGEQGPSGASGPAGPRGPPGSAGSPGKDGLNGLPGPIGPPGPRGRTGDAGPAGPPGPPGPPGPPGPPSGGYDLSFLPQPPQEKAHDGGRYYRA
T1 sequence (P02465 80-1117 limits assumed): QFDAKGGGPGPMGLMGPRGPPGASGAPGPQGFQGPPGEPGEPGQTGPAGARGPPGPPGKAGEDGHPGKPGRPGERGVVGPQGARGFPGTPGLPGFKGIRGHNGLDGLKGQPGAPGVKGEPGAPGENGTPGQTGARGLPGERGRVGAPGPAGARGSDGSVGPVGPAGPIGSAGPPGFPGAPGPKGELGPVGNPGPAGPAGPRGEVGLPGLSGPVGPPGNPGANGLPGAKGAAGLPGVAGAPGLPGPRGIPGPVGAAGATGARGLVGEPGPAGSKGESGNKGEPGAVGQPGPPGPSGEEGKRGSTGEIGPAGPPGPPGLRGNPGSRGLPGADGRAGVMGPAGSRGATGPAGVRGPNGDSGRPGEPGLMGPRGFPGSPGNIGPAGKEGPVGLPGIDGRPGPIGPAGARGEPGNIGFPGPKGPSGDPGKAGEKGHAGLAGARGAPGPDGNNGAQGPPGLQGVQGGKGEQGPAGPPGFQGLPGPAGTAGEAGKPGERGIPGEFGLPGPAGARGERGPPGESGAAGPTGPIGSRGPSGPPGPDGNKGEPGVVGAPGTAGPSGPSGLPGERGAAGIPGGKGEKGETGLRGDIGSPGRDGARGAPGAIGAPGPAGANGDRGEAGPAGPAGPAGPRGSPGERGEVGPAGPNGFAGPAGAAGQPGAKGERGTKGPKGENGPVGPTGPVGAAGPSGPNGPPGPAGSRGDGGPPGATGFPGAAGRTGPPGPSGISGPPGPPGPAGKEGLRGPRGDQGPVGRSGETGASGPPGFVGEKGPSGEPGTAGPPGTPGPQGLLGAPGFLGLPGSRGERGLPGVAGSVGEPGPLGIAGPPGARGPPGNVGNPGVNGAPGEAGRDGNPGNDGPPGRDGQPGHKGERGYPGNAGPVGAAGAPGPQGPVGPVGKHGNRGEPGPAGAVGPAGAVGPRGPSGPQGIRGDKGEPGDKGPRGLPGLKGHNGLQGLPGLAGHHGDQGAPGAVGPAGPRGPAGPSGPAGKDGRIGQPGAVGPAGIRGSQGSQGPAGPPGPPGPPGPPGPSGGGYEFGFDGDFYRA
Procedure: In the experiments below, acetic acid-extracted bovine type I collagen (Advanced Biomatrix, 5026-1 KIT) was mixed with monosaccharide solutions, and/or acetic acid, such that the final collagen concentration was either 0.5 or 1 mg/mL and final saccharide concentration ranged from 0-1 M. Concentrated Tris-buffered saline (10×TBS) at 0.25 M trizma base (Sigma Aldrich, T4661) and 1.3 M sodium chloride
(Fisher Chemical, S271-500), was used as 10% of the solution volume to maintain a physiological pH and ionic strength, and 0.25 M sodium hydroxide was used for a final pH adjustment to 7.3. Any remaining volume in the solution recipes was fulfilled via the addition of deionized water.
Experiments included mixing collagen with a concentrated monosaccharide solution, neutralizing it, and measuring turbidity spectrophotometrically (313 nm) over the course of two hours. In the absence of monosaccharides, 1 mg/mL collagen fully polymerized within minutes, as expected (Williams, B. R., et al., 1978). […] The increased ODmax caused by the monosaccharides cannot be fully attributed to the contribution of the monosaccharides in solution (Table 2) (Hayashi & Nagai, 1972; Wood & Keech, 1960).
To study the assembly of collagen, the kinetics of collagen assembly in the presence of monosaccharides were monitored using a plate-reader spectrophotometer (Molecular Devices, SpectraMax M5). Working in triplicate, 100 μL of the mixed collagen and saccharide solution was pipetted into a 96-well plate and layered with 100 μL of silicone oil to prevent evaporation. […] Each test condition was repeated three times for a total of n=9 data sets.
The analyze the assembly kinetics, turbidity assays were analyzed and normalized between 0-1 using Equation 1, where OD represents the optical density.
To analyze the kinetics, 0% assembly was defined as the absorbance value when the minimum absorbance was recorded, and 100% corresponded to the maximum value. 10, 30, 70 and 90% absorbance and corresponding timepoints were calculated using linear interpolation between the two bounding data points. Error bars were calculated as standard error of the mean. Rate of assembly was determined by calculating the slope between 30% and 70% assembly for each data set.

[3] = biological target: pre-established 1 mg/mL collagen networks (Bos taurus, UniProt P02453+P02465); conditions: 37° C., 180 minutes, critical concentration
Sequence of pre-established 1 mg/mL collagen networks (P02453 162-1217 limits assumed): as the sequence (P02453 162-1217 limits assumed) above
Sequence of pre-established 1 mg/mL collagen networks (P02465 80-1117 limits assumed): as the sequence (P02465 80-1117 limits assumed) above

physchem = conditions: 37 °C, pH 5, aqueous buffer
[4] = biological target: T2, pre-existing A546-labeled collagen network (Bos taurus, UniProt P02453+P02465); assay: Dual-fluorescence incorporation of soluble collagen into a pre-existing collagen network (colocalization, PCC); assay type: biochemical, bovine; conditions: 0.5 M GlcNAc, 0.5 M Gal or 1 M GlucA; 0.025 mg/mL collagen, 1 hour, 37° C., n=10 images
T2 construct: acetic acid-extracted bovine type I collagen; purchased Advanced Biomatrix 5026-1 KIT; host or cells: extracted from bovine tissue, then labelled in house
T2 sequence (P02453 162-1217 limits assumed): as the sequence (P02453 162-1217 limits assumed) above
T2 sequence (P02465 80-1117 limits assumed): as the sequence (P02465 80-1117 limits assumed) above
Text: Collagen was fluorescently labeled by the following procedure. Collagen was amine-labeled with either Alexa Fluor 546 NHS Ester (Thermo Fisher Scientific, A20002) or Alexa Fluor 488 TFP (Thermo Fisher Scientific, A30005) according to the protocol of Paten et al. (Paten, J. A., et al., 2019). Collagen was labeled with A488 solution in a 5:1 molar ratio of A488:collagen and then purified using a 10,000 MWCO Slide-A-Lyzer dialysis cassette (Thermo Fisher Scientific, 66380). The same process was performed with A546 in a 5:1 molar ratio of A546:collagen. Prior to use, the collagen concentration was determined by a modified Lowry assay (Bio-Rad, DC-Protein Assay), and the labeling efficiency was determined according to previous reports (Paten, J. A., et al., 2019).
To test if the critical saccharide concentrations would allow the soluble collagen to incorporate into a pre-existing matrix, despite the observed nucleation inhibition, first a collagen network was polymerized labeled with a A546 (red) at 37° C. using the example procedure described above. Then a mixture of A488-labeled collagen (green) with a nucleation-inhibiting concentration of either GlcNAc, Gal, or GlucA was added to the pre-existing A546-labeled collagen network. In all cases, distinct fibrillar networks of A488-collagen after a 1 hour incubation and exhaustive rinsing to reduce non-specific binding was observed.
The ability for soluble collagen to incorporate into a pre-established collagen network in the presence of monosaccharides was investigated with fluorescent imaging using an inverted microscope (Nikon, ECLIPSE Ti2) with a 0.45 numerical aperture 20× objective (Nikon, MRH08230) and a CMOS camera (Andor, Zyla 4.2). […]
The Imaging and Colocalization Analysis of the Dual-Fluorescence collagen Network was conducted using the following procedure. For imaging the A546-labeled collagen network, the excitation signal (CoolLED, PE-300-W-L-SB-40) was passed through a 530±15 nm filter, and the emission signal was detected after passing through a 575±20 nm filter (Chroma Technology, 49014). […]

[5] = Stock solutions made near maximum solubility; conditions: 37 °C, pH 5, aqueous buffer
[6] = carboxylic acid of GlucA; cited from earlier work
[7] = collagen 0.5 mg/mL, 0.125M saccharide
[8] = collagen 0.5 mg/mL, 0.25M saccharide
[9] = collagen 1 mg/mL, 0.125M saccharide
[10] = collagen 1 mg/mL, 0.25M saccharide

Baseline absorbance ([1]; 0.125M saccharide) | Baseline absorbance ([1]; 0.25M saccharide) | Baseline absorbance ([1]; 0.5M saccharide) | critical concentration at which collagen assembly was completely inhibited [2] [M] | lag time (lag phase at 30% assembly) [2] [min] | Rates of Collagen Assembly (KA), 30% to 70% [2, 7] [% per second] | Rates of Collagen Assembly (KA), 30% to 70% [2, 8] [% per second] | Rates of Collagen Assembly (KA), 30% to 70% [2, 9] [% per second] | Rates of Collagen Assembly (KA), 30% to 70% [2, 10] [% per second] | change in the collagen network under inverted microscope [3] | solubility (physchem) [mM] | Pearson's correlation coefficient (PCC) of incorporated A488-collagen with pre-established network [4] | SMILES | effect on collagen assembly kinetics and ODmax [2] | effect on collagen assembly [2] | Baseline absorbance ([1]; 1M saccharide) | Rates of Collagen Assembly (KA), 30% to 70% ([2]; collagen 0.5 mg/mL, 0.5M saccharide) [% per second] | Rates of Collagen Assembly (KA), 30% to 70% ([2]; collagen 1 mg/mL, 0.5M saccharide) [% per second] | solubility [5] [mM] | pKa [6]
0.041 ± 0.001 | 0.043 ± 0.001 | 0.044 ± 0.001 | 0.5 | 15 ± 0.6 | 14.28 ± 1.48 | 7.22 ± 0.89 | 28.71 ± 1.54 | 15.96 ± 1.39 | minimal to no change | ~2000 (≈ 360 mg/mL) | 0.53±0.11 | O=C[C@H](O)[C@@H](O)[C@@H](O)[C@H](O)CO [Gal, D(+)-galactose] | a delay in the lag phase and growth phase and an increase in the maximum absorbance (ODmax) | completely inhibited collagen assembly |  |  |  |  | 
0.061 ± 0.001 | 0.074 ± 0.001 | 0.105 ± 0.001 | 0.5 | 16 ± 2.5 | 13.32 ± 0.63 | 6.77 ± 0.31 | 17.91 ± 1.52 | 8.27 ± 0.54 |  | ~1000 (≈ 221 mg/mL) | 0.66±0.10 | CC(=O)N[C@H]1C(O)O[C@H](CO)[C@@H](O)[C@@H]1O (stereo partly drawn) [GlcNAc, N-acetyl-D-glucosamine] | a delay in the lag phase and growth phase and an increase in the maximum absorbance (ODmax) |  |  |  |  |  | 
 |  |  |  |  |  |  |  |  |  |  |  | CC(=O)O [acetic acid, reference compound] |  | little impact on the early kinetics but significantly reduced the steady-state absorbance |  |  |  |  | 

SMILES | Baseline absorbance ([1]; 0.125M saccharide) | Baseline absorbance ([1]; 0.25M saccharide) | Baseline absorbance ([1]; 0.5M saccharide) | critical concentration at which collagen assembly was completely inhibited [2] [M] | lag time (lag phase at 30% assembly) [2] [min] | Rates of Collagen Assembly (KA), 30% to 70% [2, 7] [% per second] | Rates of Collagen Assembly (KA), 30% to 70% [2, 8] [% per second] | Rates of Collagen Assembly (KA), 30% to 70% [2, 9] [% per second] | Rates of Collagen Assembly (KA), 30% to 70% [2, 10] [% per second] | change in the collagen network under inverted microscope [3] | solubility (physchem) [mM] | Pearson's correlation coefficient (PCC) of incorporated A488-collagen with pre-established network [4] | effect on collagen assembly kinetics and ODmax [2] | effect on collagen assembly [2] | Baseline absorbance ([1]; 1M saccharide) | Rates of Collagen Assembly (KA), 30% to 70% ([2]; collagen 0.5 mg/mL, 0.5M saccharide) [% per second] | Rates of Collagen Assembly (KA), 30% to 70% ([2]; collagen 1 mg/mL, 0.5M saccharide) [% per second] | solubility [5] [mM] | pKa [6]
O.O=C[C@H](O)[C@@H](O)[C@H](O)[C@H](O)C(=O)[O-].[Na+] [GlucA, D-glucuronic acid sodium salt monohydrate] |  | 0.063 ± 0.000 | 0.082 ± 0.001 | 1 |  |  | 6.84 ± 0.47 |  | 13.83 ± 1.10 |  |  | 0.50±0.11 |  |  | 0.120 ± 0.000 | 10.69 ± 0.53 | 40.64 ± 2.59 | ~2000 | 3.2
